Experimental data as given in paper PMC10290391, “Targeted degradation of ⍺-synuclein aggregates in Parkinson’s disease using the AUTOTAC technology” (Molecular Neurodegeneration, 2023).

Experiments:
p62 = molecular target: T1, p62 (Homo sapiens, UniProt Q13501); assay: Western blot of p62 oligomerization in HeLa cells; assay type: cell-based
T1 construct: endogenous in cells; host or cells: HeLa
Procedure: (§1) For the separation of Triton X-100 soluble and insoluble fractions for monitoring α-syn, cells were washed with PBS and lysed in Triton X-100 buffer (50 mM Tris / 150 mM NaCl / 100 mM EDTA / 1% Triton X-100, pH 7.6) containing protease and phosphatase inhibitors for 30 min on ice. The lysates were centrifuged at 12,000 rpm for 30 min, and the soluble supernatant was taken. The remaining pellets were washed with Triton X-100 buffer, followed by centrifugation at 12,000 rpm for 20 min. The supernatants were discarded, and the resulting insoluble pellets were resuspended in laemli buffer containing 1% SDS. Samples were subjected to SDS-PAGE. After blocking with 5% milk and washing process, the membranes were incubated with primary antibodies overnight at 4 °C, followed by washing with PBS-T and incubation with horseradish peroxidase-conjugated secondary antibodies. Immunoreactive bands were detected using ECL reagents (Thermo Fisher Scientific, 32,106). For non-reducing SDS-PAGE, cell lysates were mixed with 4 × laemli buffer containing no 2-mercaptoethanol. For reducing SDS-PAGE, cells were lysed by RIPA buffer (150 mM NaCl, 1% Triton X-100, 1% sodium deoxycholate, 0.1% Tris–HCl, pH 7.5, 2 mM EDTA) and prepared with 5 × protein sample buffer containing 2-mercaptoethanol (Elpis Biotech, EBA-1052). Densitometry of developed bands was analyzed with ImageJ (NIH, Bethesda).

[1] = Brain penetration of ATC161 in TauP301L-BiFC AD mouse model; assay type: in vivo, mice; conditions: after 4 h of oral administration
Procedure: Supplementary file 13024_2023_630_MOESM1_ESM.eps: Additional file 1: Supplementary figure 1. Drug profiles of ATL and Autotac compounds. A, drug profiles of ATL compounds. Tissue concentrations and oral bioavailability were measured in ICR male mice upon 5 mg/kg oral administration of each ATL compound. B, structures of ATC161~164. C, Pharmacokinetic study of ATC161 conducted in male ICR mice otherwise indicated. M.W. represents molecular weight. The plasma exposure and the half-life were determined upon either POor IPATC161 administration. The drug tissue exposure was determined in Tau301L BiFC mice. IV refers to intravenous injection.

cleaved-PARP1 = assay: Western blot of cleaved-PARP1 in h-α-syn PFF-transduced HEK293A cells; assay type: cell-based, human; conditions: 1 μM, 24 h
Procedure: as §1

[2] = system: HEK293A cells transduced with h-α-syn PFFs; assay: Immunocytochemistry in HEK293A cells transduced with h-α-syn PFFs; assay type: cell-based, human
Procedure: Recombinant human α-syn (1–140) were obtained from NKMAX (SNA2001L). In vitro fibrillization was performed by diluting recombinant α-syn monomers to 1 mg/mL in sterile PBS, then incubating at 37 °C with constant agitation at 1,000 rpm for seven days. The fibrillization was verified by thioflavin T and sedimentation assays. The ability to form phospho-α-syn (S129) was also assessed by immunocytochemistry. In addition, to determine whether the generated PFFs act as seeds to accumulate endogenous α-syn, an adenovirus that expresses c-Myc-His-tagged human α-syn (gifted from lab of S.J.L) was used to infect cultured cells at an MOI of 10, followed by a fractionation assay. The administration of PFFs into 293A cells was done with protein delivery reagent (BioPORTER QuikEase Protein Delivery Kit, Sigma) following the provider’s instruction. The mouse α-syn PFFs were obtained from StressMarq (SPR-324). Prior to treatment, PFFs were sonicated at 20% amplitude, 1 s pulse on and off for 30 s (SONICS Vibra Cell sonicator, Merck Z412619). For cells, α-syn monomers and PFFs were transduced at 1 µg/mL.
Cells were fixed with 4% paraformaldehyde (PFA) for 20 min at room temperature, followed by permeabilization with 0.1% Triton X-100 buffer for 15 min. The cells were blocked with 2% bovine serum albumin (BSA) in PBS for 1 h at room temperature. Then, the cells were incubated with primary antibodies diluted in the blocking buffer overnight at 4 °C. After washing with PBS, the slides were incubated with AlexaFluor-conjugated secondary antibodies for 1 h at room temperature. After mounting the slides with mounting solution containing DAPI, the images were captured on an LSM700 confocal microscopy (Carl Zeiss).

LC3 = assay: Western blot of LC3 lipidation (LC3-I into LC3-II) in HeLa cells; assay type: cell-based; conditions: 1 μM, 24 h
Procedure: as §1

T1 sequence (Q13501 whole entry): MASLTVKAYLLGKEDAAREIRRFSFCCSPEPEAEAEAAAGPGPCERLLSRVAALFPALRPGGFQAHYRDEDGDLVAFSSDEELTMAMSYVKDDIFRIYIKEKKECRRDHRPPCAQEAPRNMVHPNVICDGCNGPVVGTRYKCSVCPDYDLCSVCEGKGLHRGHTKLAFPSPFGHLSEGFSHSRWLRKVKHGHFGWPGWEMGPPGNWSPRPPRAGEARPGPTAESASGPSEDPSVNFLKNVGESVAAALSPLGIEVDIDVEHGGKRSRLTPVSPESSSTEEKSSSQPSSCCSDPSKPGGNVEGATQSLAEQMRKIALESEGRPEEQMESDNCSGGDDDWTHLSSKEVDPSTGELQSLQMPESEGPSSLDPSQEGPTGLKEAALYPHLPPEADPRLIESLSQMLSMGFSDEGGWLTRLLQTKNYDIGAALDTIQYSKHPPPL

Fc1ccc(COc2cccc(CNCCOCCOCCNc3cccc(-c4cc(-c5ccc6c(c5)OCO6)n[nH]4)c3)c2)cc1 [ATC161, 3-(3-(benzo[d][1,3]dioxol-5-yl)-1H-pyrazol-5-yl)-N-(2-(2-(2-((3-((4-fluorobenzyl)oxy)benzyl)amino)ethoxy)ethoxy)ethyl)aniline]
p62 oligomerization compared with the other Autotac compounds (p62; 1 μM, 24 h): most efficiently facilitated p62 oligomerization
concentration inducing p62 oligomerization (p62; dose-dependent up to 1,000 nM): ~ 1 nM
Kp at 4 h [1]: ~0.1
cleaved-PARP1 level (apoptotic process) (cleaved-PARP1): efficiently inhibited such an apoptotic process
number of phospho-H2AX+ foci (DNA double strand breaks) ([2]; 0.1 μM, 48 h): robust efficacy to reduce the number of phospho-H2AX^+ foci
reduction in number of α-syn+ cytosolic puncta ([2]; 1 μM, 24 h): 55%
lipidation of LC3 into LC3-II compared with ATC162 (LC3): induced the lipidation of LC3 into LC3-II more efficiently
